The source made the active and inactive calls. The calls are words filed in the database; no cut-off is given here.
What was measured:
[1] = biological target: Protein kinase C alpha type (Homo sapiens) (UniProt P17252); assay: Binding affinity to recombinant C1B domain of PKCalpha expressed in Escherichia coli BL21 (DE3) after 45 mins by fluorescence quenching assay
[2] = biological target: Protein kinase C alpha type (Homo sapiens) (UniProt P17252); assay: Inhibition of TPA-induced membrane translocation of PKCalpha expressed in HEK293 cells assessed as protein found in membrane fraction at 100 uM after 2 hrs by Western blotting relative to TPA; assay type: cell-based; design: scale not given: the % may be the effect or the level left
[3] = biological target: Protein kinase C alpha type (Homo sapiens) (UniProt P17252); assay: Inhibition of membrane translocation of PKCalpha expressed in HEK293 cells at 100 uM after 2 hrs by Western blotting; assay type: cell-based
[4] = system: HEK293; assay: Cytotoxicity against HEK293 cells assessed as decrease in cell viability at 100 uM after 48 hrs by MTT assay relative to control; assay type: cell-based; settings: human, hek293, 48 h
[5] = biological target: Protein kinase C alpha type (Homo sapiens) (UniProt P17252); assay: Inhibition of membrane translocation of PKCalpha expressed in HEK293 cells assessed as increase of protein found in membrane fraction at 100 uM after 2 hrs by Western blotting relative to resveratrol; assay type: cell-based; design: scale not given: the % may be the effect or the level left
[6] = system: HEK293; assay: Cytotoxicity against HEK293 cells assessed as increase in cell viability at 100 uM after 48 hrs by MTT assay relative to resveratrol; assay type: cell-based; settings: human, hek293, 48 h

Row | SMILES | Activity [1] | Activity [2] [%] | inhibition [3] [%] | Activity [4] [%] | Activity [5] [%] | fold change (FC) [6] | Activity [6] [%]
1 | Oc1ccc(/C=C/c2cc(O)cc(O)c2)cc1 [RESVERATROL] | Active | 60 | 5 | 20 | – | – | –
2 | CCCCCCCCOc1ccc(/C=C/c2cc(O)cc(O)c2)cc1 | – | 85.2 | – | – | 20 | 4 | –
3 | CCCCCCCCCCCCCCCCOc1ccc(/C=C/c2cc(O)cc(O)c2)cc1 | Active | 79.8 | – | – | 20 | 2 | –
4 | Oc1cc(/C=C/c2cc(O)c(O)c(O)c2)cc(O)c1O | Active | 29.8 | – | – | 20 | – | 25
5 | CCCCCCCCOc1cc(/C=C/c2ccc(O)cc2)cc(OCCCCCCCC)c1 | – | 65.7 | – | – | 20 | 4 | –
6 | COc1cc(/C=C/c2cc(OC)c(OC)c(OC)c2)cc(OC)c1OC | – | 44.8 | – | – | 20 | 2 | –
7 | CCCCCCCCCCCCCCCCOc1cc(/C=C/c2ccc(O)cc2)cc(OCCCCCCCCCCCCCCCC)c1 | – | 78.8 | – | – | 20 | 2 | –
8 | COc1ccc(/C=C/c2cc(OC)cc(OC)c2)cc1 [TRISMETHOXYRESVERATROL] | Active | 31.9 | – | – | 20 | 4 | –
9 | CCCCCCCCCCCCCCCCOc1c(O)cc(/C=C/c2cc(O)c(O)c(O)c2)cc1O | – | 68.3 | – | – | 20 | – | 25
